Strand notation (5' to 3'): a small letter for the sugar, then the base; units joined by * are phosphorothioate-linked, units joined directly phosphodiester-linked; [ ] holds rarer units or linkages, { } end groups; capitals alone tell only the bases. e = 2'-O-(2-methoxyethyl) (MOE); k = constrained ethyl (cEt); [5mC] = 5-methylcytosine; d = 2'-deoxy (DNA)

A word on the % inhibition: it is the share of the control response that was lost under treatment. The low end stands for a response near the control, the high end for a response far below the control.

For the data set, the system named is human PKK mRNA. Put plainly: Antisense inhibition of human PKK mRNA in HepaRG cells, 1,000 nM, MOE/deoxy/cEt oligonucleotides (Example 3). Format: cell-based. Conditions: Table 21 experiment; HepaRG cells, electroporation with 1,000 nM antisense oligonucleotide, approx. 24 hours; PKK mRNA by RT-PCR (RTS3454), relative to untreated control cells. As for the experimental part:
Additional antisense oligonucleotides were designed targeting a PKK nucleic acid and were tested for their effects on PKK mRNA in vitro.
The chimeric antisense oligonucleotides in the tables below were designed as deoxy, MOE and cEt gapmers. The gapmers are 16 nucleosides in length wherein the nucleoside have either a MOE sugar modification, a cEt sugar modification, or a deoxy modification. The ‘Chemistry’ column describes the sugar modifications of each oligonucleotide. ‘k’ indicates an cEt sugar modification; the number indicates the number of deoxynucleosides; otherwise, indicates a deoxynucleoside; and ‘e’ indicates a 2′-O-methoxyethyl modification. The internucleoside linkages throughout each gapmer are phosphorothioate linkages. All cytosine residues throughout each oligonucleotide are 5-methylcytosines. “Start site” indicates the 5′-most nucleoside to which the gapmer is targeted in the human gene sequence. “Stop site” indicates the 3′-most nucleoside to which the gapmer is targeted in the human gene sequence.
Cultured HepaRG™ cells at a density of 20,000 cells per well were transfected using electroporation with 1,000 nM antisense oligonucleotide. After a treatment period of approximately 24 hours, RNA was isolated from the cells and PKK mRNA levels were measured by quantitative real-time PCR. Human primer probe set RTS3454 was used to measure mRNA levels. ISIS 531231 was also included in this assay. PKK mRNA levels were adjusted according to total RNA content, as measured by RIBOGREEN®. The antisense oligonucleotides were tested in a series of experiments that had similar culture conditions. Results are presented as percent inhibition of PKK, relative to untreated control cells.
Regarding “547751 (eT*eG*kA*dA*d[5mC]*dG*dG*dT*d[5mC]*dT*dT*d[5mC]*dA*kA*kG*e[5mC]; antisense) [compound 547751]”, the “% inhibition” value is reported as 0%. On to “547753 (eA*eT*kG*dA*dA*d[5mC]*dG*dG*dT*d[5mC]*dT*dT*d[5mC]*kA*kA*eG; antisense) [compound 547753]”, for which the “% inhibition” value came to 3%. In the case of “547755 (eT*eA*kA*dA*dA*dA*dT*dG*dA*dA*d[5mC]*dG*dG*kT*k[5mC]*eT; antisense) [compound 547755]”, the “% inhibition” value turned out to be 0%.

Turning to “547757 (antisense eG*eA*kG*dT*d[5mC]*dT*d[5mC]*dT*dT*dG*dT*d[5mC]*dA*k[5mC]*kT*eT) [compound 547757]”, the “% inhibition” value was determined as 69%. The result for “547759 (antisense eT*eG*kA*dG*dT*d[5mC]*dT*d[5mC]*dT*dT*dG*dT*d[5mC]*kA*k[5mC]*eT) [compound 547759]” reads 73%. With “547763 (antisense eG*eG*kT*dG*dA*dG*dT*d[5mC]*dT*d[5mC]*dT*dT*dG*kT*k[5mC]*eA) [compound 547763]” the figure was 66%.

For “547765 (antisense eA*eG*kG*dT*dG*dA*dG*dT*d[5mC]*dT*d[5mC]*dT*dT*kG*kT*e[5mC]) [compound 547765]”, the “% inhibition” value is recorded as 20%. In the case of “547767 (antisense eT*eG*kG*dA*dG*dG*dT*dG*dA*dG*dT*d[5mC]*dT*k[5mC]*kT*eT) [compound 547767]”, the “% inhibition” value was determined as 74%. The result for “547771 (antisense e[5mC]*eT*kT*dG*dG*dA*dG*dG*dT*dG*dA*dG*dT*k[5mC]*kT*e[5mC]) [compound 547771]” reads 60%; that for “547773 (antisense eT*e[5mC]*kT*dT*dG*dG*dA*dG*dG*dT*dG*dA*dG*kT*k[5mC]*eT) [compound 547773]”, 47%.

In the case of “547777 (antisense eT*eT*kG*d[5mC]*dT*dT*d[5mC]*dT*dT*dG*dG*dA*dG*kG*kT*eG) [compound 547777]”, the “% inhibition” value came to 69%. The result for “547779 (antisense eA*eT*kT*dG*d[5mC]*dT*dT*d[5mC]*dT*dT*dG*dG*dA*kG*kG*eT) [compound 547779]” reads 41%. With “547781 (antisense e[5mC]*eA*kA*dT*dT*dG*d[5mC]*dT*dT*d[5mC]*dT*dT*dG*kG*kA*eG) [compound 547781]” the figure was 49%; with “547783 (antisense e[5mC]*eA*k[5mC]*dA*dA*dT*dT*dG*d[5mC]*dT*dT*d[5mC]*dT*kT*kG*eG) [compound 547783]”, 48%; with “547784 (antisense eG*e[5mC]*kT*dT*dG*dA*dA*dT*dA*dA*dA*dA*dT*k[5mC]*kA*eT) [compound 547784]”, 46%. The result for “547785 (antisense eG*eT*kT*dG*d[5mC]*dT*dT*dG*d[5mC]*dT*dT*dG*dA*kA*kT*eA) [compound 547785]” reads 48%; that for “547786 (antisense eA*eG*kT*dT*dG*d[5mC]*dT*dT*dG*d[5mC]*dT*dT*dG*kA*kA*eT) [compound 547786]”, 44%; that for “547787 (antisense eA*eA*kG*dT*dT*dG*d[5mC]*dT*dT*dG*d[5mC]*dT*dT*kG*kA*eA) [compound 547787]”, 22%.

Regarding “547788 (antisense eT*eA*kA*dG*dT*dT*dG*d[5mC]*dT*dT*dG*d[5mC]*dT*kT*kG*eA) [compound 547788]”, the “% inhibition” value is recorded as 49%. The result for “547789 (antisense eG*eA*kA*dA*dT*dA*dA*dG*dT*dT*dG*d[5mC]*dT*kT*kG*e[5mC]) [compound 547789]” reads 20%; that for “547790 (antisense eT*eG*kA*dA*dA*dT*dA*dA*dG*dT*dT*dG*d[5mC]*kT*kT*eG) [compound 547790]”, 23%; that for “547791 (antisense eA*e[5mC]*kT*dG*dT*dA*dG*d[5mC]*dA*dA*dA*d[5mC]*dA*kA*kG*eG) [compound 547791]”, 49%. Turning to “547792 (antisense eT*e[5mC]*k[5mC]*dA*d[5mC]*dA*dG*dG*dA*dA*dA*d[5mC]*dT*kG*kT*eA) [compound 547792]”, the “% inhibition” value is 31%.

In the case of “547793 (antisense eA*eT*k[5mC]*d[5mC]*dA*d[5mC]*dA*dG*dG*dA*dA*dA*d[5mC]*kT*kG*eT) [compound 547793]”, the “% inhibition” value is 16%. With “547794 (antisense eT*e[5mC]*kA*dT*dA*dG*dA*dG*dT*dT*dG*dA*dG*kT*k[5mC]*eA) [compound 547794]” the figure was 49%. The result for “547795 (antisense eA*e[5mC]*k[5mC]*dT*d[5mC]*dT*dG*dA*dA*dG*dA*dA*dG*kG*k[5mC]*eG) [compound 547795]” reads 66%; that for “547796 (antisense eA*eT*k[5mC]*d[5mC]*d[5mC]*d[5mC]*dA*d[5mC]*d[5mC]*dT*d[5mC]*dT*dG*kA*kA*eG) [compound 547796]”, 35%; that for “547797 (antisense eA*eG*k[5mC]*dT*dA*d[5mC]*dA*dT*d[5mC]*d[5mC]*d[5mC]*d[5mC]*dA*k[5mC]*k[5mC]*eT) [compound 547797]”, 33%.

“547799 (eG*eA*kA*dG*d[5mC]*dT*dA*d[5mC]*dA*dT*d[5mC]*d[5mC]*d[5mC]*k[5mC]*kA*e[5mC]; antisense) [compound 547799]”: the “% inhibition” value was 41%. The result for “547800 (eA*e[5mC]*kA*dT*dG*dG*dA*dA*dG*d[5mC]*dT*dA*d[5mC]*kA*kT*e[5mC]; antisense) [compound 547800]” reads 20%. The result for “547801 (eT*eA*k[5mC]*dA*dT*dG*dG*dA*dA*dG*d[5mC]*dT*dA*k[5mC]*kA*eT; antisense) [compound 547801]” reads 11%; that for “547802 (eG*eT*kA*d[5mC]*dA*dT*dG*dG*dA*dA*dG*d[5mC]*dT*kA*k[5mC]*eA; antisense) [compound 547802]”, 41%; that for “547803 (eT*eG*kT*dA*d[5mC]*dA*dT*dG*dG*dA*dA*dG*d[5mC]*kT*kA*e[5mC]; antisense) [compound 547803]”, 0%. The result for “547804 (eG*eT*kG*dT*dA*d[5mC]*dA*dT*dG*dG*dA*dA*dG*k[5mC]*kT*eA; antisense) [compound 547804]” reads 22%. For the substance “547805 (eG*eG*kG*dT*dG*dT*dA*d[5mC]*dA*dT*dG*dG*dA*kA*kG*e[5mC]; antisense) [compound 547805]”, the “% inhibition” value is given as 54%. The result for “547809 (eT*e[5mC]*kA*dT*d[5mC]*dT*dG*dG*d[5mC]*dA*dG*dT*dA*kT*kT*eG; antisense) [compound 547809]” reads 33%; that for “547810 (e[5mC]*e[5mC]*kT*d[5mC]*dA*dT*d[5mC]*dT*dG*dG*d[5mC]*dA*dG*kT*kA*eT; antisense) [compound 547810]”, 60%; that for “547811 (eA*e[5mC]*k[5mC]*dT*d[5mC]*dA*dT*d[5mC]*dT*dG*dG*d[5mC]*dA*kG*kT*eA; antisense) [compound 547811]”, 49%. With “547812 (eG*eT*kG*d[5mC]*dA*d[5mC]*d[5mC]*dT*d[5mC]*dA*dT*d[5mC]*dT*kG*kG*e[5mC]; antisense) [compound 547812]” the figure was 51%. The result for “547813 (eG*eG*kT*dG*dG*dA*dA*dT*dG*dT*dG*d[5mC]*dA*k[5mC]*k[5mC]*eT; antisense) [compound 547813]” reads 34%; that for “547814 (eG*eG*kG*dT*dG*dG*dA*dA*dT*dG*dT*dG*d[5mC]*kA*k[5mC]*e[5mC]; antisense) [compound 547814]”, 60%; that for “547815 (eA*eA*k[5mC]*dT*dT*dG*d[5mC]*dT*dG*dG*dA*dA*dG*kA*kA*eA; antisense) [compound 547815]”, 3%.

Take “547816 (eG*eA*kA*d[5mC]*dT*dT*dG*d[5mC]*dT*dG*dG*dA*dA*kG*kA*eA; antisense) [compound 547816]”: the “% inhibition” value turned out to be 45%. The result for “547817 (eT*eG*kA*dA*d[5mC]*dT*dT*dG*d[5mC]*dT*dG*dG*dA*kA*kG*eA; antisense) [compound 547817]” reads 18%; that for “547818 (eG*eA*kT*dT*dG*dA*dA*d[5mC]*dT*dT*dG*d[5mC]*dT*kG*kG*eA; antisense) [compound 547818]”, 4%.

With “547819 (e[5mC]*eA*kT*dT*dG*dA*dT*dT*dG*dA*dA*d[5mC]*dT*kT*kG*e[5mC]; antisense) [compound 547819]”, the “% inhibition” value came to 11%. Consider “547820 (eT*e[5mC]*kA*dT*dT*dG*dA*dT*dT*dG*dA*dA*d[5mC]*kT*kT*eG; antisense) [compound 547820]”, for which the “% inhibition” value came out at 0%.

As for “547821 (e[5mC]*eA*kA*dA*d[5mC]*d[5mC]*dT*dT*dT*dT*d[5mC]*dT*d[5mC]*k[5mC]*kA*eT; antisense) [compound 547821]”, the “% inhibition” value turned out to be 44%.

The values above are taken from patent US11840686B2, “Modulation of prekallikrein (PKK) expression” (Ionis Pharmaceuticals, Inc., priority 2013, dated 2023).
